# Measured values from patent publication US20240172750A1, “5-Fluoro-4-Imino-3-Methyl-1-Tosyl-3,4-Dihydropyrimidin-2(1H)-One for Controlling Plant Diseases” (Adama Makhteshim Ltd., priority 2021, published 2024).
# Assays:
# Onion = assay: Non-target terrestrial plants, seedling emergence; format: in vivo
# Excerpt: (§1) The ecotoxicity of flumetylsulforim was investigated in numerous studies in accordance with the strict requirements for the approval of active substances in the EU.
# Maize = assay: Non-target terrestrial plants, seedling emergence; format: in vivo
# Excerpt: as §1
# Common oat = assay: Non-target terrestrial plants, seedling emergence; format: in vivo
# Excerpt: as §1
# Soybean = assay: Non-target terrestrial plants, seedling emergence; format: in vivo
# Excerpt: as §1
# Sugar beet = assay: Non-target terrestrial plants, seedling emergence; format: in vivo
# Excerpt: as §1
# Oil seed rape = assay: Non-target terrestrial plants, seedling emergence; format: in vivo
# Excerpt: as §1
# Ryegrass = assay: Non-target terrestrial plants, seedling emergence; format: in vivo
# Excerpt: as §1
# Carrot = assay: Non-target terrestrial plants, seedling emergence; format: in vivo
# Excerpt: as §1
# Sunflower = assay: Non-target terrestrial plants, seedling emergence; format: in vivo
# Excerpt: as §1
# Cucumber = assay: Non-target terrestrial plants, seedling emergence; format: in vivo
# Excerpt: as §1
# Honeybee [1] = assay: Ecotoxicity: honeybee, acute contact; format: in vivo
# Excerpt: as §1
# [2] = tested on: Microsphaera diffusa (powdery mildew)
# Method: Microsphaera diffusa (powdery mildew) is artificially inoculated by spraying the inoculum on the leaves few days after the application.
# To test for fungicidal control of Microsphaera diffusa (powdery mildew), the soybean plants, grown in pots, are sprayed at V2 with each of the above treatments. 5 pots with 3 soybean plants each are considered, each treatment counts for 4 replicates.
# Between 14 and 21 days from the inoculation, the severity (%) of the infection is assessed.
# Daphnia magna = assay: Ecotoxicity: aquatic invertebrates, long-term; format: in vivo
# Excerpt: as §1
# Rainbow trout = assay: Ecotoxicity: fish, long-term; format: in vivo
# Excerpt: as §1
# Botrytis cinerea = assay: Grey mould in strawberry, pot trial, foliar treatment; format: in vivo; details: 250 OD at 450 g ai/ha, 3 applications, last assessment
# Method: The compound of formula I 250 OD was tested at different doses, namely 400, 450 and 500 g ai/ha as depicted in the table below and compared to an untreated control as well as two reference products, SCALA (pyrimethanil 400 g/L) at 1000 g ai/ha and SIGNUM (boscalid+pyraclostrobin 26.7+[…]) at 600 g ai/ha.
# Botrytis cinerea was artificial inoculated by spraying the inoculum on the leaves 3-4 days before the application.
# To test for fungicidal control of Botrytis cinerea, the strawberry plants, grown in pots, were sprayed with each of the above treatments. 5 pots of 22 cm of diameter (the soil used for the trial is a mix of peat and perlite) with 1 plant each were used, 1 pot per replicate (each treatment is made of 4 replicates) was considered.
# Each of the treatments was applied 3 times (ABC) according to the disease development as follows: A, early curative (before the disease symptoms appear; 3-4 days after the artificial inoculation), B, 7-10 days from A and C, to be evaluated in function of the disease development (7-10 days from B).
# At the first symptoms the following parameters were assessed: • percentage of affected leaf area (% severity) • percentage of affected leaves (% incidence) • percentage of affected fruit area (% severity) • percentage of affected fruits (% incidence)
# M. fijiensis = assay: Black sigatoka on banana plants in climatic chamber; format: in vivo, Mycosphaerella fijiensis
# Method: The banana plants used for this experimentation were obtained from vitro-plants Cavendish type furnished by VITROPIC S.A. (France). One-month old plants (2 fully deployed leaves: F2 (oldest leaf) and F1 and the cigar leaf) are treated (see details in the table below) were inoculated with a calibrated mycelial seed-inoculum of a mixture of 4 M. fijiensis strains (for each treatment, 3 repetitions (banana plants) are considered). Banana leaves of each plant were treated on their upper (adaxial) and lower (abaxial) face and then incubated for one hour under a laminar flow in order to let dry the fungicide droplets. After inoculation, banana plants were transferred in climatic chamber: 25° C. day/18° C. night, photoperiod of 16 h light/8 h dark and 100% Relative Humidity. From 28 days to 56 days post inoculation (dpi) each banana plants is observed and the disease intensity severity (DSI: Disease Severity Index) is evaluated over time in order to determine the AUDPC (Area Under Disease Progress Curve)—Table 12, and the fungicidal efficacy expressed in percent of the untreated control—Table 13.
# Honeybee [3] = assay: Ecotoxicity: honeybee, chronic oral; format: in vivo
# Excerpt: as §1
# Green alga = assay: Ecotoxicity: algae, long-term; format: in vivo; details: wheats and barley at 2 × 100 g/ha
# Excerpt: as §1
# [4] = Ecotoxicity: algae, long-term; format: in vivo; details: in vivo, Green alga
# Excerpt: as §1
# Rat = assay: Ecotoxicity: mammals, acute; format: in vivo
# Excerpt: as §1
# [5] = tested on: Colletotrichum dematium var. truncatum; assay: Pot trial, Colletotrichum dematium var. truncatum on soybean; format: in vivo; details: 50-200 g ai/ha
# Method: The inoculation of Corynespora cassiicola and Colletotrichum dematium var. truncatum is done with infected leaves from the field few days after the application.
# To test for fungicidal control against the two necrotrophic diseases, the soybean plants, grown in pots, are sprayed at V2 with each of the above treatments. 5 pots with 3 soybean plants each are considered, each treatment counts for 4 replicates.
# Between 14 and 21 days from the inoculation the severity (%) of the infection is assessed.
# Bobwhite quail = assay: Ecotoxicity: birds, reproduction; format: in vivo
# Excerpt: as §1
# [6] = wheats and barley at 2 × 100 g/ha
# Method for Ramularia areola: The objective of the trial is to assess the fungicidal effect of ADF-16 against Ramularia areola on cotton, compared to an untreated control and a reference product.
# ADF-16 is tested at different doses, namely at 50, 100, 150 and 200 g ai/ha as depicted in the table below.
# Ramularia areola is artificially inoculated by spraying the conidia on the plants, previously sprayed with the fungicide.
# To test for fungicidal control of Ramularia areola, the cotton plants, grown in pots, are sprayed at first true leaf fully open with each of the above treatments. 5 pots with 3 cotton plants each are considered, each treatment counts for 4 replicates.
# Between 25 and 30 days from the inoculation the severity (%) of the infection is assessed.
structure (smiles),measurement,setting,value
"Cc1ccc(S(=O)(=O)n2cc(F)c(=N)n(C)c2=O)cc1 [compound of formula I, 5-fluoro-4-imino-3-methyl-1-tosyl-3,4-dihydropyrimidin-2(1H)-one]",ER50,Onion,ER50 > 189 g/ha
same,Risk at current use pattern,Onion; [6],Acceptable
same,ER50,Maize,ER50 > 189 g/ha
same,Risk at current use pattern,Maize; [6],Acceptable
same,ER50,Common oat,ER50 > 189 g/ha
same,Risk at current use pattern,Common oat; [6],Acceptable
same,ER50,Soybean,ER50 > 189 g/ha
same,Risk at current use pattern,Soybean; [6],Acceptable
same,ER50,Sugar beet,ER50 > 189 g/ha
same,Risk at current use pattern,Sugar beet; [6],Acceptable
same,ER50,Oil seed rape,ER50 > 189 g/ha
same,Risk at current use pattern,Oil seed rape; [6],Acceptable
same,ER50,Ryegrass,ER50 > 189 g/ha
same,Risk at current use pattern,Ryegrass; [6],Acceptable
same,ER50,Carrot,ER50 > 189 g/ha
same,Risk at current use pattern,Carrot; [6],Acceptable
same,ER50,Sunflower,ER50 > 189 g/ha
same,Risk at current use pattern,Sunflower; [6],Acceptable
same,ER50,Cucumber,ER50 > 189 g/ha
same,Risk at current use pattern,Cucumber; [6],Acceptable
same,LD50,Honeybee [1],LD50 > 50 μg/bee
same,phytotoxicity,[2]; in vivo,no significant phytotoxicity
same,control of Microsphaera diffusa,"[2]; soybean, 50-200 g ai/ha",effectively controls
same,NOEC,Daphnia magna,NOEC = 0.32 mg/L
same,Risk at current use pattern,Daphnia magna; [6],Acceptable
same,control of Ramularia areola,"Ramularia areola; cotton, 50-200 g ai/ha",effectively controls
same,phytotoxicity,Ramularia areola; in vivo,no significant phytotoxicity
same,NOEC,Rainbow trout,NOEC = 0.128 mg/L
same,Risk at current use pattern,Rainbow trout; [6],Acceptable
same,control (fungicide efficacy on leaf severity),Botrytis cinerea,more than 90%
same,control of Mycosphaerella fijiensis in banana (conclusion),M. fijiensis,efficiently controlling
same,LD50,Honeybee [3],LD50 = 16.0 μg/bee/d
same,Risk at current use pattern,Green alga,Acceptable
same,EC50,[4],> 10 µg/mL
same,LD50,Rat,LD50 > 2000 mg/kg bw
same,Risk at current use pattern,Rat; [6],Acceptable
same,control of Colletotrichum dematium var. truncatum,[5],effectively controls
same,NOED,Bobwhite quail,NOED > 67.8 mg/kg bw/d
same,Risk at current use pattern,Bobwhite quail; [6],Acceptable
